In ChEMBL document CHEMBL3272271, “Folate antagonists. 13. 2,4-Diamino-6-](alpha,alpha,alpha-trifluoro-m-tolyl)thio]quinazoline and related 2,4-diamino-6-[(phenyl- and naphthyl)thio]quinazolines, a unique class of antimetabolites with extraordinary antimalarial and antibacterial effects” (J Med Chem, 1978):
Values after ≈ are worked out from the molar mass of the structure shown. Active and inactive are the calls of the source. The calls are words filed in the database; no cut-off is given here.

Key:
[1] = tested on: Shigella sonnei; assay: Antibacterial activity against Shigella sonnei C-10 by gradient plate test; format: functional
[2] = tested on: Plasmodium berghei; assay: Antimalarial activity against Plasmodium berghei infected in mouse assessed as increase in mean survival days of host at 5 mg/kg, sc administered 72 hrs after infection relative to control; format: functional; settings: route subcutaneous
[3] = tested on: Enterococcus faecalis; assay: Antibacterial activity against Streptococcus faecalis MGH-2 by gradient plate test; format: functional
[4] = tested on: Plasmodium berghei; assay: Antimalarial activity against Plasmodium berghei infected in mouse assessed as disease cure from parasite infection at 20 mg/kg, sc administered 72 hrs after infection; format: functional, organism-based; set-up: dose 20 mg/kg
[5] = tested on: Staphylococcus aureus; assay: Antibacterial activity against Staphylococcus aureus UC-96 by gradient plate test; format: functional
[6] = tested on: Plasmodium berghei; assay: Antimalarial activity against Plasmodium berghei infected in mouse assessed as disease cure from parasite infection at 40 mg/kg, sc administered 72 hrs after infection; format: functional, organism-based; set-up: dose 40 mg/kg
[7] = tested on: Plasmodium berghei; assay: Antimalarial activity against Plasmodium berghei infected in mouse assessed as disease cure from parasite infection at 5 mg/kg, sc administered 72 hrs after infection; format: functional, organism-based; set-up: dose 5 mg/kg
[8] = tested on: Plasmodium berghei; assay: Antimalarial activity against Plasmodium berghei infected in mouse assessed as disease cure from parasite infection at 10 mg/kg, sc administered 72 hrs after infection; format: functional, organism-based; set-up: dose 10 mg/kg
[9] = tested on: Staphylococcus aureus; assay: Antibacterial activity against drug-resistant Staphylococcus aureus S18713 by gradient plate test; format: functional
[10] = tested on: Pseudomonas aeruginosa; assay: Antibacterial activity against Pseudomonas aeruginosa 28 by gradient plate test; format: functional
[11] = tested on: Plasmodium berghei; assay: Antimalarial activity against Plasmodium berghei infected in mouse assessed as disease cure from parasite infection at 80 mg/kg, sc administered 72 hrs after infection; format: functional, organism-based; set-up: dose 80 mg/kg
[12] = tested on: Plasmodium berghei; assay: Antimalarial activity against Plasmodium berghei infected in mouse assessed as increase in mean survival days of host at 10 mg/kg, sc administered 72 hrs after infection relative to control; format: functional; settings: route subcutaneous
[13] = tested on: Plasmodium berghei; assay: Antimalarial activity against Plasmodium berghei infected in mouse assessed as disease cure from parasite infection at 320 mg/kg, sc administered 72 hrs after infection; format: functional, organism-based; set-up: dose 320 mg/kg
[14] = tested on: Escherichia coli; assay: Antibacterial activity against Escherichia coli Vogel by gradient plate test; format: functional
[15] = tested on: Mycobacterium tuberculosis; assay: Antibacterial activity against Mycobacterium tuberculosis H37Ra by gradient plate test; format: functional
[16] = tested on: Plasmodium berghei; assay: Antimalarial activity against Plasmodium berghei infected in mouse assessed as increase in mean survival days of host at 1.25 mg/kg, sc administered 72 hrs after infection relative to control; format: functional; settings: route subcutaneous
[17] = tested on: Plasmodium berghei; assay: Antimalarial activity against Plasmodium berghei infected in mouse assessed as disease cure from parasite infection at 640 mg/kg, sc administered 72 hrs after infection; format: functional, organism-based; set-up: dose 640 mg/kg
[18] = tested on: Plasmodium berghei; assay: Antimalarial activity against Plasmodium berghei infected in mouse assessed as disease cure from parasite infection at 160 mg/kg, sc administered 72 hrs after infection; format: functional, organism-based; set-up: dose 160 mg/kg
[19] = tested on: Plasmodium berghei; assay: Antimalarial activity against Plasmodium berghei infected in mouse assessed as increase in mean survival days of host at 20 mg/kg, sc administered 72 hrs after infection relative to control; format: functional; settings: route subcutaneous
[20] = tested on: Plasmodium berghei; assay: Antimalarial activity against Plasmodium berghei infected in mouse assessed as increase in mean survival days of host at 2.5 mg/kg, sc administered 72 hrs after infection relative to control; format: functional; settings: route subcutaneous
[21] = tested on: Plasmodium gallinaceum; assay: Antimalarial activity against trophozoite-induced Plasmodium gallinaceum infected in white leghorn chicken assessed as increase in mean survival days of host at 160 mg/kg, sc administered 72 hrs after infection relative to control; format: functional; settings: route subcutaneous
[22] = tested on: Plasmodium gallinaceum; assay: Antimalarial activity against trophozoite-induced Plasmodium gallinaceum infected in white leghorn chicken assessed as increase in mean survival days of host at 2.5 mg/kg, sc administered 72 hrs after infection relative to control; format: functional; settings: route subcutaneous
[23] = tested on: Plasmodium gallinaceum; assay: Antimalarial activity against sporozoite-induced Plasmodium gallinaceum infected in white leghorn chicken assessed as increase in mean survival days of host at 80 mg/kg, sc administered 72 hrs after infection relative to control; format: functional; settings: route subcutaneous
[24] = tested on: Plasmodium gallinaceum; assay: Antimalarial activity against trophozoite-induced Plasmodium gallinaceum infected in white leghorn chicken assessed as increase in mean survival days of host at 80 mg/kg, sc administered 72 hrs after infection relative to control; format: functional; settings: route subcutaneous
[25] = tested on: Plasmodium berghei; assay: Ratio of quinine hydrochloride SD90 to compound SD90 for trophozoite-induced Plasmodium berghei infected in mouse assessed as daily dose required to suppression of 90% parasite infection administered with diet for 6 days; format: functional
[26] = tested on: Plasmodium gallinaceum; assay: Antimalarial activity against sporozoite-induced Plasmodium gallinaceum infected in white leghorn chicken assessed as disease cure from parasite infection at 160 mg/kg, sc administered 72 hrs after infection; format: functional, organism-based; set-up: dose 160 mg/kg
[27] = tested on: Plasmodium gallinaceum; assay: Antimalarial activity against trophozoite-induced Plasmodium gallinaceum infected in white leghorn chicken assessed as disease cure from parasite infection at 160 mg/kg, sc administered 72 hrs after infection; format: functional, organism-based; set-up: dose 160 mg/kg
[28] = tested on: Plasmodium gallinaceum; assay: Antimalarial activity against trophozoite-induced Plasmodium gallinaceum infected in white leghorn chicken assessed as increase in mean survival days of host at 0.63 mg/kg, sc administered 72 hrs after infection relative to control; format: functional; settings: route subcutaneous
[29] = tested on: Plasmodium gallinaceum; assay: Antimalarial activity against sporozoite-induced Plasmodium gallinaceum infected in white leghorn chicken assessed as increase in mean survival days of host at 10 mg/kg, sc administered 72 hrs after infection relative to control; format: functional; settings: route subcutaneous
[30] = tested on: Plasmodium gallinaceum; assay: Antimalarial activity against trophozoite-induced Plasmodium gallinaceum infected in white leghorn chicken assessed as increase in mean survival days of host at 40 mg/kg, sc administered 72 hrs after infection relative to control; format: functional; settings: route subcutaneous
[31] = tested on: Plasmodium gallinaceum; assay: Antimalarial activity against sporozoite-induced Plasmodium gallinaceum infected in white leghorn chicken assessed as disease cure from parasite infection at 10 mg/kg, sc administered 72 hrs after infection; format: functional, organism-based; set-up: dose 10 mg/kg
[32] = tested on: Plasmodium berghei; assay: Antimalarial activity against trophozoite-induced Plasmodium berghei infected in mouse assessed as daily dose required to suppression of 90% parasite infection administered with diet for 6 days; format: functional
[33] = tested on: Plasmodium gallinaceum; assay: Antimalarial activity against sporozoite-induced Plasmodium gallinaceum infected in white leghorn chicken assessed as disease cure from parasite infection at 80 mg/kg, sc administered 72 hrs after infection; format: functional, organism-based; set-up: dose 80 mg/kg
[34] = tested on: Plasmodium gallinaceum; assay: Antimalarial activity against sporozoite-induced Plasmodium gallinaceum infected in white leghorn chicken assessed as disease cure from parasite infection at 320 mg/kg, sc administered 72 hrs after infection; format: functional, organism-based; set-up: dose 320 mg/kg
[35] = tested on: Plasmodium gallinaceum; assay: Antimalarial activity against trophozoite-induced Plasmodium gallinaceum infected in white leghorn chicken assessed as increase in mean survival days of host at 10 mg/kg, sc administered 72 hrs after infection relative to control; format: functional; settings: route subcutaneous
[36] = tested on: Plasmodium gallinaceum; assay: Antimalarial activity against sporozoite-induced Plasmodium gallinaceum infected in white leghorn chicken assessed as disease cure from parasite infection at 20 mg/kg, sc administered 72 hrs after infection; format: functional, organism-based; set-up: dose 20 mg/kg
[37] = tested on: Gallus gallus; assay: Toxicity in sporozoite-induced Plasmodium gallinaceum infected white leghorn chicken assessed as mortality at 320 mg/kg, sc administered 72 hrs after infection measured up to 6 days; format: organism-based; set-up: dose 320 mg/kg, route subcutaneous; settings: in vivo
[38] = tested on: Plasmodium gallinaceum; assay: Antimalarial activity against sporozoite-induced Plasmodium gallinaceum infected in white leghorn chicken assessed as increase in mean survival days of host at 20 mg/kg, sc administered 72 hrs after infection relative to control; format: functional; settings: route subcutaneous
[39] = tested on: Plasmodium gallinaceum; assay: Antimalarial activity against sporozoite-induced Plasmodium gallinaceum infected in white leghorn chicken assessed as disease cure from parasite infection at 40 mg/kg, sc administered 72 hrs after infection; format: functional, organism-based; set-up: dose 40 mg/kg
[40] = tested on: Plasmodium gallinaceum; assay: Antimalarial activity against trophozoite-induced Plasmodium gallinaceum infected in white leghorn chicken assessed as disease cure from parasite infection at 320 mg/kg, sc administered 72 hrs after infection; format: functional, organism-based; set-up: dose 320 mg/kg
[41] = tested on: Plasmodium gallinaceum; assay: Antimalarial activity against trophozoite-induced Plasmodium gallinaceum infected in white leghorn chicken assessed as increase in mean survival days of host at 20 mg/kg, sc administered 72 hrs after infection relative to control; format: functional; settings: route subcutaneous
[42] = tested on: Gallus gallus; assay: Toxicity in sporozoite-induced Plasmodium gallinaceum infected white leghorn chicken assessed as mortality at 160 mg/kg, sc administered 72 hrs after infection measured up to 6 days; format: organism-based; set-up: dose 160 mg/kg, route subcutaneous; settings: in vivo
[43] = tested on: Plasmodium gallinaceum; assay: Antimalarial activity against sporozoite-induced Plasmodium gallinaceum infected in white leghorn chicken assessed as increase in mean survival days of host at 40 mg/kg, sc administered 72 hrs after infection relative to control; format: functional; settings: route subcutaneous
[44] = tested on: Plasmodium gallinaceum; assay: Antimalarial activity against trophozoite-induced Plasmodium gallinaceum infected in white leghorn chicken assessed as increase in mean survival days of host at 320 mg/kg, sc administered 72 hrs after infection relative to control; format: functional; settings: route subcutaneous
[45] = tested on: Plasmodium gallinaceum; assay: Antimalarial activity against trophozoite-induced Plasmodium gallinaceum infected in white leghorn chicken assessed as increase in mean survival days of host at 1.25 mg/kg, sc administered 72 hrs after infection relative to control; format: functional; settings: route subcutaneous
[46] = tested on: Plasmodium gallinaceum; assay: Antimalarial activity against trophozoite-induced Plasmodium gallinaceum infected in white leghorn chicken assessed as increase in mean survival days of host at 5 mg/kg, sc administered 72 hrs after infection relative to control; format: functional; settings: route subcutaneous

In the case of Nc1nc(N)c2c(Cl)c(Sc3ccc4ccccc4c3)ccc2n1, the MIC [1] is reported as over 25 µg/mL, the MST [2] is reported as 12.7 days and the MIC [3] is reported as under 0.25 µg/mL. The Activity [4] was “Active”, the MIC [5] was 1.5 µg/mL (≈ 4.25 µM) and the Activity [6] was “Active”. For the same molecule, the Activity [7] was “Active”, the Activity [8] was “Active” and the MIC [9] was 5 µg/mL (≈ 14.2 µM). For the same molecule, the MIC [10] was over 25 µg/mL, the Activity [11] was “Active” and the MST [12] was 15.9 days. For the same molecule, the Activity [13] was “Active”, the MIC [14] was 10 µg/mL (≈ 28.3 µM) and the MIC [15] was 10 µg/mL (≈ 28.3 µM). For the same molecule, the MST [16] was 5.5 days, the Activity [17] was “Active” and the Activity [18] was “Active”. For the same molecule, the MST [19] was 15.9 days and the MST [20] was 7.9 days.

Molecule Nc1nc(N)c2cc(Sc3ccc(F)cc3)ccc2n1 has an MIC [1] of under 0.25 µg/mL, an MST [21] of 15.5 days and an MST [22] of 3.2 days. It also gave an MST [23] of 0.5 days, an MST [24] of 13 days and an MST [2] of 7.1 days. For the same molecule, the Ratio [25] was 210, the MIC [3] was under 0.25 µg/mL and the Activity [4] was “Active”. The MIC [5] was under 0.25 µg/mL, the Activity [26] was “Active” and the Activity [6] was “Active”. For the same molecule, the Activity [27] was “Active”, the MST [28] was 0 days and the MST [29] was 6.5 days. For the same molecule, the MIC [9] was under 0.25 µg/mL, the MST [30] was 9.2 days and the MIC [10] was over 25 µg/mL. For the same molecule, the Activity [31] was “Active”, the SD90 [32] was 0.36 mg/kg/day and the Activity [33] was “Active”. The Activity [34] was “Active”, the MST [35] was 7.2 days and the Activity [36] was “Active”. For the same molecule, the Activity [11] was “Active”, the MST [12] was 11.1 days and the Activity [13] was “Active”. For the same molecule, the MIC [14] was under 0.25 µg/mL, the Activity [37] was “Toxic” and the MST [38] was 0.5 days. For the same molecule, the Activity [39] was “Active”, the Activity [40] was “Active” and the MST [16] was 5.3 days. For the same molecule, the Activity [17] was “Active”, the Activity [18] was “Active” and the MST [41] was 7.8 days. For the same molecule, the Activity [42] was “Toxic”, the MST [43] was 0.5 days and the MST [19] was 13.5 days. It also gave an MST [20] of 6.1 days, an MST [44] of 19.3 days and an MST [45] of 0 days. The MST [46] was 5.8 days.
